The target in assay [1] is Thymidylate synthase (Escherichia coli, UniProt C3SWJ7). Kind of assay: Inhibitory effect against Escherichia coli thymidylate synthase.
The target in assay [2] is Thymidylate synthase (Homo sapiens, UniProt P04818). Kind of assay: Inhibitory effect against recombinant human thymidylate synthase.
Assay [3] in a line: Compound is evaluated for thymidine shift. […]. The format is functional.
For a further assay, the system named is CCRF-CEM. Kind of assay: Compound is screened for cell growth inhibition against CCRF-CEM cell line, a human lymphoblastic leukemia line of T-cell origin. The format is functional, cell-based.
The test system of another assay is GC3/MTK-. Kind of assay: Compound is screened for cell growth inhibition against GC3/MTK-cell line, a human thymidine kinase deficient adenocarcinoma line. The format is functional, cell-based.
The next assay has as its system L1210. Kind of assay: Compound is screened for cell growth inhibition against L1210 murine leukemia tumor cell line. The format is functional, cell-based. To be noted: Mus musculus.

Each structure is given as a SMILES string.

As a reminder, the Ki is the equilibrium dissociation constant of an inhibitor or competing ligand from its target. The IC50 is the midpoint of a concentration-inhibition curve. A low value points to inhibition by little substance.

Sequence of Thymidylate synthase (Escherichia coli, UniProt C3SWJ7) (C3SWJ7 whole entry): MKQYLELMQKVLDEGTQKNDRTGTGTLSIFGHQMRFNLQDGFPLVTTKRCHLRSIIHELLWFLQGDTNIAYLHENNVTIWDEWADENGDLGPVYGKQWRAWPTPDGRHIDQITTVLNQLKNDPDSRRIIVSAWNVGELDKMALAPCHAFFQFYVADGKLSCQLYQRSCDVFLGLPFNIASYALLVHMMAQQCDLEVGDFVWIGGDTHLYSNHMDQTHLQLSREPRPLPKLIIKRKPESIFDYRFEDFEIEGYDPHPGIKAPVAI
Sequence of Thymidylate synthase (Homo sapiens, UniProt P04818) (P04818 whole entry): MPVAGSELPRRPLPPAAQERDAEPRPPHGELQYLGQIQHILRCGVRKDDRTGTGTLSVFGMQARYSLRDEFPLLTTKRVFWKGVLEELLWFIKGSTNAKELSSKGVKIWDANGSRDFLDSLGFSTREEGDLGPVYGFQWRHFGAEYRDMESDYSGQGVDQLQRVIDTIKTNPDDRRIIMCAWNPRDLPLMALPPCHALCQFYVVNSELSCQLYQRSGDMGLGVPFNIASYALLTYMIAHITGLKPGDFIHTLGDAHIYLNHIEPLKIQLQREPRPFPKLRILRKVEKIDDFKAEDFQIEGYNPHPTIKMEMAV

Take `CN(Cc1ccc(S(=O)(=O)N2CCOCC2)cc1)c1ccc2c3c(cccc13)C(N)=N2` [METESIND]: the results for the Ki at Thymidylate synthase [1] and at Thymidylate synthase [2] were 5400 nM and 15 nM, respectively.

`CN(Cc1ccnc(CO)c1)c1ccc2c3c(cccc13)C(N)=N2`: the Thymidine shift in assay [3] came to 6.9. Moreover, the Ki on Thymidylate synthase [2] came to 18 nM. In addition, the half-maximal inhibitory concentration (IC50) was 3000 nM with CCRF-CEM, 11000 nM with GC3/MTK- and 1300 nM with L1210.

`CN(Cc1ccncc1)c1ccc2c3c(cccc13)C(N)=N2`: in assay [3], the Thymidine shift is 4.9. Also, the values for the Ki at Thymidylate synthase [1] and on Thymidylate synthase [2] were 6600 nM and 17 nM, respectively. Moreover, the half-maximal inhibitory concentration (IC50) with CCRF-CEM is 2400 nM; in the assay on GC3/MTK-, 4800 nM; with L1210 it was 95 nM.

Take `CNC1=Nc2ccc(N(C)Cc3ccncc3)c3cccc1c23`: in assay [3], the Thymidine shift was found to be 2.6. For the same molecule, the Ki at Thymidylate synthase [2] is 270 nM. Besides, the IC50 with CCRF-CEM is 5100 nM; in the assay with GC3/MTK-, 23000 nM; in the assay with L1210, 1900 nM.

With `CNC1=Nc2ccc(N(C)Cc3ccnnc3)c3cccc1c23`, in assay [3], the Thymidine shift was 1.9. The Ki at Thymidylate synthase [2] came out at 310 nM. For the same molecule, the half-maximal inhibitory concentration (IC50) in the assay with CCRF-CEM stood at 9000 nM; with GC3/MTK-, 26000 nM; in the assay with L1210, 6900 nM.

For `Cc1ccc2c3c(ccc(N(C)Cc4ccnnc4)c13)N=C2N`, the Thymidine shift in assay [3] was 12.1. In addition, on Thymidylate synthase [2], the Ki is 10 nM. Further, the values for the IC50 with CCRF-CEM, in the assay with GC3/MTK- and with L1210 were 780 nM, 2100 nM and 450 nM, respectively.

`Cc1ccc2c3c(ccc(N(C)Cc4ccncc4)c13)N=C2N`: in assay [3], the Thymidine shift came to 2.3. For the same molecule, the Ki at Thymidylate synthase [1] stood at 600 nM; on Thymidylate synthase [2], 6 nM. For the same molecule, the IC50 stood at 440 nM in the assay on CCRF-CEM, 1100 nM with GC3/MTK- and 160 nM in the assay on L1210.

Consider `CNC1=Nc2ccc(N(C)Cc3ccncc3)c3c(C)ccc1c23`, for which the Thymidine shift in assay [3] was 4.1. In addition, the inhibition constant Ki at Thymidylate synthase [2] was determined as 14 nM. The IC50 in the assay on CCRF-CEM was 1100 nM; in the assay with GC3/MTK-, 3600 nM; in the assay on L1210, 210 nM.

As to `CNC1=Nc2ccc(N(C)Cc3ccnnc3)c3c(C)ccc1c23`, the Thymidine shift in assay [3] turned out to be 2.6. The Ki at Thymidylate synthase [2] stood at 30 nM. In addition, the 50% inhibitory concentration (IC50) in the assay with CCRF-CEM came out at 3700 nM; in the assay with GC3/MTK- it was 9900 nM; in the assay on L1210, 800 nM.

With `Cc1cc(CN(C)c2ccc3c4c(ccc(C)c24)C(N)=N3)ccn1`, the Thymidine shift in assay [3] was determined as 4.1. Also, the inhibitory constant (Ki) at Thymidylate synthase [2] was found to be 4 nM. Also, the values for the IC50 in the assay with CCRF-CEM, with GC3/MTK- and in the assay on L1210 were 450 nM, 600 nM and 170 nM, respectively.

For `Cc1cc(CN(C)c2ccc3c4c(cccc24)C(N)=N3)ccn1`, the Thymidine shift in assay [3] was 2.1. In addition, the Ki at Thymidylate synthase [1] came out at 1800 nM; on Thymidylate synthase [2], 14 nM. The IC50 in the assay on CCRF-CEM is 2300 nM; in the assay with GC3/MTK-, 7900 nM; in the assay on L1210, 1600 nM.

With `CN(Cc1ccnnc1)c1ccc2c3c(cccc13)C(N)=N2`, the Thymidine shift in assay [3] was 7.7. Moreover, the inhibitory constant (Ki) at Thymidylate synthase [1] was 18000 nM; at Thymidylate synthase [2], 15 nM. Moreover, the 50% inhibitory concentration (IC50) in the assay on CCRF-CEM is 4000 nM; with GC3/MTK-, 5000 nM; with L1210, 900 nM.

In the case of `CN(Cc1ccnc(C(F)(F)F)c1)c1ccc2c3c(cccc13)C(N)=N2`, the Thymidine shift in assay [3] was 4.2. The Ki at Thymidylate synthase [2] is 45 nM. Moreover, the IC50 in the assay with CCRF-CEM turned out to be 5900 nM; in the assay on GC3/MTK-, 12000 nM; with L1210 it was 2100 nM.

Turning to `CN(Cc1ccc(S(=O)(=O)N2CCOCC2)cc1)c1ccc2c3c(cccc13)C(=N)N2`, in assay [3], the Thymidine shift turned out to be 6.7.

With `CN(Cc1ccnc(Sc2ccccc2)c1)c1ccc2c3c(cccc13)C(N)=N2`, the Thymidine shift in assay [3] is 1.8. Further, at Thymidylate synthase [2], the Ki was determined as 52 nM. Moreover, the IC50 with CCRF-CEM was 2000 nM; with GC3/MTK- it was 11500 nM; in the assay on L1210, 660 nM.

Consider `CCc1cc(CN(C)c2ccc3c4c(cccc24)C(N)=N3)ccn1`, for which the Thymidine shift in assay [3] stood at 2.8. In addition, the inhibition constant (Ki) on Thymidylate synthase [2] turned out to be 25 nM. In addition, the results for the IC50 in the assay with CCRF-CEM, in the assay on GC3/MTK- and with L1210 were 3000 nM, 6500 nM and 1000 nM, respectively.

For the origin of these results see ChEMBL document CHEMBL1128577, “Synthesis and biological evaluation of novel 2,6-diaminobenz[cd]indole inhibitors of thymidylate synthase using the protein structure as a guide” (J Med Chem, 1995).
